From ChEMBL document CHEMBL4257544, “Synthesis and biological evaluation of novel asymmetric naphthalene diimide derivatives as anticancer agents depending on ROS generation” (Medchemcomm, 2018)
Active and inactive are the calls of the source. No cut-off for these calls is given here.

Assays:
[1] = test system: HepG2; test: Cytotoxicity against human HepG2 cells after 48 hrs by MTT assay; assay type: functional, cell-based; details: HepG2, 48 h
[2] = test system: HepG2; test: Potency index, ratio of amonafide IC50 to compound IC50 for cytotoxicity against human HepG2 cells; assay type: functional
[3] = test system: SMMC-7721; test: Potency index, ratio of amonafide IC50 to compound IC50 for cytotoxicity against human SMMC7721 cells; assay type: functional
[4] = test system: HepG2; test: Cytotoxicity against human HepG2 cells after 24 hrs by MTT assay; assay type: functional, cell-based; details: HepG2, 24 h
[5] = test system: HepG2; test: Cytotoxicity against human HepG2 cells assessed as cell rounding after 24 hrs; assay type: functional, cell-based
[6] = test system: HepG2; test: Cytotoxicity against human HepG2 cells assessed as reduction in cell volume after 24 hrs; assay type: functional, cell-based
[7] = test system: HepG2; test: Cytotoxicity against human HepG2 cells assessed as cytoplasm shrinkage after 24 hrs; assay type: functional, cell-based
[8] = test system: SMMC-7721; test: Cytotoxicity against human SMMC7721 cells assessed as cell rounding after 24 hrs; assay type: functional, cell-based
[9] = test system: SMMC-7721; test: Cytotoxicity against human SMMC7721 cells assessed as reduction in cell volume after 24 hrs; assay type: functional, cell-based
[10] = test system: SMMC-7721; test: Cytotoxicity against human SMMC7721 cells assessed as cytoplasm shrinkage after 24 hrs; assay type: functional, cell-based
[11] = test system: SMMC-7721; test: Induction of apoptosis in human SMMC7721 cells after 24 hrs by acridine orange/ethidium bromide and Hoechst 33342 staining based HCS analysis; assay type: functional, cell-based
[12] = test system: HepG2; test: Induction of apoptosis in human HepG2 cells after 24 hrs by Annexin V/propidium iodide staining based flow cytometry; assay type: functional, cell-based
[13] = test system: SMMC-7721; test: Induction of apoptosis in human SMMC7721 cells after 24 hrs by Annexin V/propidium iodide staining based flow cytometry; assay type: functional, cell-based
[14] = test system: SMMC-7721; test: Induction of apoptosis in human SMMC7721 cells at 3 uM after 48 hrs by Annexin V/propidium iodide staining based flow cytometry relative to control; assay type: functional
[15] = test system: SMMC-7721; test: Induction of apoptosis in human SMMC7721 cells assessed as decrease in Bcl2 protein expression at 1 to 3 uM after 24 hrs by Western blot analysis; assay type: functional, cell-based
[16] = test system: HepG2; test: Induction of apoptosis in human HepG2 cells assessed as increase in caspase-8 activation at 1 to 3 uM after 24 hrs by Western blot analysis; assay type: functional, cell-based
[17] = test system: HepG2; test: Induction of apoptosis in human HepG2 cells assessed as increase in p53 protein expression at 1 to 3 uM after 24 hrs by Western blot analysis; assay type: functional, cell-based
[18] = test system: SMMC-7721; test: Induction of apoptosis in human SMMC7721 cells assessed as increase in p53 protein expression at 1 to 3 uM after 24 hrs by Western blot analysis; assay type: functional, cell-based
[19] = test system: HepG2; test: Induction of autophagy in human HepG2 cells assessed as vacuolization after 12 hrs; assay type: functional, cell-based
[20] = test system: SMMC-7721; test: Induction of autophagy in human SMMC7721 cells assessed as vacuolization at 2 uM after 12 hrs by transmission electron microscopic method; assay type: functional, cell-based
[21] = test system: SMMC-7721; test: Induction of autophagy in human SMMC7721 cells assessed as autophagosome formation at 2 uM after 12 hrs by transmission electron microscopic method; assay type: functional, cell-based
[22] = test system: HepG2; test: Induction of autophagy in human HepG2 cells after 24 hrs by MDC staining based HCS analysis; assay type: functional, cell-based
[23] = test system: SMMC-7721; test: Induction of autophagy in human SMMC7721 cells assessed as increase in LC3-2 level by Western blot analysis; assay type: functional, cell-based
[24] = test system: HepG2; test: Induction of autophagy in human HepG2 cells assessed as increase in LC3-2 level by Western blot analysis; assay type: functional, cell-based
[25] = test system: HepG2; test: Induction of autophagy in human HepG2 cells assessed as increase in BECN1 level at 1 to 3 uM by Western blot analysis; assay type: functional, cell-based
[26] = test system: SMMC-7721; test: Induction of autophagy in human SMMC7721 cells assessed as decrease in p62 level at 1 to 3 uM by Western blot analysis; assay type: functional, cell-based
[27] = test system: HepG2; test: Cytotoxicity against human HepG2 cells assessed as reduction in cell viability in presence of autophagy inhibitor 3-MA by MTT assay; assay type: functional, cell-based
[28] = test system: SMMC-7721; test: Cytotoxicity against human SMMC7721 cells assessed as reduction in cell viability in presence of autophagy inhibitor 3-MA by MTT assay; assay type: functional, cell-based
[29] = test system: HepG2; test: Induction of ROS generation in human HepG2 cells at 1 to 3 uM after 24 hrs by DCFH-DA staining based HCS analysis; assay type: functional, cell-based
[30] = test system: SMMC-7721; test: Induction of ROS generation in human SMMC7721 cells at 1 to 3 uM after 24 hrs by DCFH-DA staining based HCS analysis; assay type: functional, cell-based
[31] = test system: HepG2; test: Induction of ROS generation in human HepG2 cells at 1 to 3 uM after 24 hrs in presence of antioxidant alpha-tocopherol by DCFH-DA staining based HCS analysis; assay type: functional, cell-based
[32] = test system: SMMC-7721; test: Induction of ROS generation in human SMMC7721 cells at 1 to 3 uM after 24 hrs in presence of antioxidant alpha-tocopherol by DCFH-DA staining based HCS analysis; assay type: functional, cell-based
[33] = test system: SMMC-7721; test: Cytotoxicity against human SMMC7721 cells assessed as reduction in cell viability treated at 1 hr post antioxidant alpha-tocopherol addition by MTT assay; assay type: functional, cell-based
[34] = test system: HepG2; test: Cytotoxicity against human HepG2 cells assessed as morphological changes treated at 1 hr post antioxidant alpha-tocopherol addition and measured after 24 hrs; assay type: functional, cell-based
[35] = test system: HepG2; test: Induction of apoptosis in human HepG2 cells treated at 1 hr post antioxidant alpha-tocopherol addition and measured after 24 hrs by Annexin V/propidium iodide staining based flow cytometry; assay type: functional, cell-based
[36] = test system: SMMC-7721; test: Induction of apoptosis in human SMMC7721 cells assessed as increase in p53 protein expression treated at 1 hr post antioxidant alpha-tocopherol addition and measured after 24 hrs by Western blot analysis; assay type: functional, cell-based
[37] = test system: HepG2; test: Induction of apoptosis in human HepG2 cells assessed as increase in cleaved PARP1 protein expression treated at 1 hr post antioxidant alpha-tocopherol addition and measured after 24 hrs by Western blot analysis; assay type: functional, cell-based
[38] = test system: HepG2; test: Induction of autophagy in human HepG2 cells assessed as increase in LC3-2 protein expression treated at 1 hr post antioxidant alpha-tocopherol addition and measured after 24 hrs by Western blot analysis; assay type: functional, cell-based
[39] = test system: SMMC-7721; test: Induction of autophagy in human SMMC7721 cells assessed as increase in LC3-2 protein expression treated at 1 hr post antioxidant alpha-tocopherol addition and measured after 24 hrs by Western blot analysis; assay type: functional, cell-based
[40] = test system: HepG2; test: Antimigratory activity against human HepG2 cells after 24 hrs by scratch wound healing assay; assay type: functional, cell-based
[41] = test system: SMMC-7721; test: Antimigratory activity against human SMMC7721 cells after 24 hrs by scratch wound healing assay; assay type: functional, cell-based
[42] = test system: HepG2; test: Downregulation of beta-catenin protein expression in human HepG2 cells at 1 to 3 uM after 24 hrs by Western blot analysis; assay type: functional, cell-based
[43] = test system: HepG2; test: Downregulation of Akt phosphorylation at […] residue in human HepG2 cells at 1 to 3 uM after 24 hrs by Western blot analysis; assay type: functional, cell-based
[44] = test system: HepG2; test: Antimigratory activity against human HepG2 cells treated at 1 hr post antioxidant alpha-tocopherol addition and measured after 24 hrs by scratch wound healing assay; assay type: functional, cell-based
[45] = test system: SMMC-7721; test: Antimigratory activity against human SMMC7721 cells treated at 1 hr post antioxidant alpha-tocopherol addition and measured after 24 hrs by scratch wound healing assay; assay type: functional, cell-based
[46] = test system: SMMC-7721; test: Downregulation of beta-catenin protein expression in human SMMC7721 cells treated at 1 hr post antioxidant alpha-tocopherol addition and measured after 24 hrs by Western blot analysis; assay type: functional, cell-based

Q: What does the source list for CCCCN1C(=O)c2ccc3c4c(ccc(c24)C1=O)C(=O)N(CCCN(C)C)C3=O?
A: IC50 [1]: 1480 nM; Ratio IC50 [2]: 5; Ratio IC50 [3]: 5; IC50 [4]: 4290 nM; Activity [5]: Active; Activity [6]: Active; Activity [7]: Active; Activity [8]: Active; Activity [9]: Active; Activity [10]: Active; Activity [11]: Dose-dependent effect; Activity [12]: Dose-dependent effect; Activity [13]: Dose-dependent effect; Activity [14]: 52.1%; Activity [15]: Active; Activity [16]: Active; Activity [17]: Active; Activity [18]: Active; Activity [19]: Active; Activity [20]: Active; Activity [21]: Active; Activity [22]: Dose-dependent effect; Activity [23]: Dose-dependent effect; Activity [24]: Dose-dependent effect; Activity [25]: Active; Activity [26]: Active; Activity [27]: inactive; Activity [28]: inactive; Activity [29]: Active; Activity [30]: Active; Activity [31]: inactive; Activity [32]: inactive; Activity [33]: inactive; Activity [34]: inactive; Activity [35]: inactive; Activity [36]: inactive; Activity [37]: inactive; Activity [38]: inactive; Activity [39]: inactive; Activity [40]: Dose-dependent effect; Activity [41]: Dose-dependent effect; Activity [42]: Active; Activity [43]: Active; Activity [44]: inactive; Activity [45]: inactive; Activity [46]: inactive
